# Assay results: US20030105115A1, “Novel pyridopyrimidines and uses thereof” (priority 2001, published 2003)
# Test: Hydroxyapatite assay (hydroxyapatite adsorption chromatography, bone-targeting potential)
# Assay type: physicochemical
# Conditions: corrected retention K=(retention time-void time)/void on TSK-Gel HA 1000 HPLC column; linear gradient 10 mM to 500 mM sodium phosphate, 0.15 N NaCl, pH 6.8
# Text: Hydroxyapatite is the principal mineral component of bone. Hydroxyapatite adsorption chromatography is used as an assay to evaluate the bone-targeting potential of both individual bone-targeting moieties (“monomers”) and of pharmaceuticals incorporating bone-targeting groups.
# The rentention time of the compound is expressed in terms of K=(retention time-void time)/void. This K value is corrected using two reference compounds to correct from inter-column and inter-system variation to obtain a K′ value.
# Reference Compounds: K′ values were determined for known bone targeted compounds, the bisphosphonate, alendronate and tetracycline.
smiles,measurement,value
"NCCCC(O)(P(=O)(O)O)P(=O)(O)O [Alendronate, alendronate]",K′ value,3.7
